Experimental findings from patent US20120172359A1 (NOVARTIS AG, priority 2010, published 2012) are described below.

Structures can show the parent of a compound that is named as a salt.

The assay deals with Human BACE-1 (Homo sapiens, UniProt P56817). Briefly: Test 1: Inhibition of Human BACE-1. The format is biochemical. Particulars: Test 1; recombinant BACE-1 (extracellular domain), acetate buffer pH 4.5, 1 hour with test compound at room temperature, fluorescence-quenched peptide substrate; read-out: Bace IC50.
Chain of Human BACE-1 (P56817 46-457 limits assumed): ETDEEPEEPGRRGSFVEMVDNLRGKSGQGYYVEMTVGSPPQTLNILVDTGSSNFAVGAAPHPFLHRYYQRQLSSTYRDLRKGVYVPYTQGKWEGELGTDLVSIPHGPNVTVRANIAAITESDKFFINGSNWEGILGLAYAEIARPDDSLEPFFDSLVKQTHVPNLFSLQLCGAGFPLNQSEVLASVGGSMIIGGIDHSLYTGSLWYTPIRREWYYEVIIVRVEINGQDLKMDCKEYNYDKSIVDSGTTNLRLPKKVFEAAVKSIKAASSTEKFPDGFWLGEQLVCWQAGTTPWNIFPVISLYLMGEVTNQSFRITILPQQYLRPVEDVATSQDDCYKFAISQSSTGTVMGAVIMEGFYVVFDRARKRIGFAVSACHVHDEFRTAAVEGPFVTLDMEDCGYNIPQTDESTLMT
For the compound `CC1(C)OC[C@](c2cc(NC(=O)c3ccc(C#N)cn3)ccc2F)(C(F)F)N=C1N` [Example 79, 5-Cyano-pyridine-2-carboxylic acid[3-(5-amino-3-difluoromethyl-6,6-dimethyl-3,6-dihydro-2H-[1,4]oxazin-3-yl)-4-fluoro-phenyl]-amide], the half-inhibitory concentration (IC50) amounted to 120 nM. With `CC1(C)OCC(c2cc(NC(=O)c3ccc(Br)cn3)ccc2F)(C(F)F)N=C1N` (stereo not drawn) [Example 80, 5-Bromo-pyridine-2-carboxylic acid [3-(5-amino-3-difluoromethyl-6,6-dimethyl-3,6-dihydro-2H-[1,4]oxazin-3-yl)-4-fluoro-phenyl]-amide hydrochloride], the IC50 came to 74 nM. For the compound `NC1=NC(c2cc(NC(=O)c3ccc(Br)cn3)c(F)cc2F)(C(F)F)COC1` (stereo not drawn) [Example 81, 5-Bromo-pyridine-2-carboxylic acid [5-(5-amino-3-difluoromethyl-3,6-dihydro-2H-[1,4]oxazin-3-yl)-2,4-difluoro-phenyl]-amide hydrochloride], the IC50 was found to be 1100 nM. Take `N#Cc1ccc(C(=O)Nc2cc(C3(C(F)F)COCC(N)=N3)c(F)cc2F)nc1` (stereo not drawn) [Example 82, 5-Cyano-pyridine-2-carboxylic acid [5-(5-amino-3-difluoromethyl-3,6-dihydro-2H-[1,4]oxazin-3-yl)-2,4-difluoro-phenyl]-amide hydrochloride]: the IC50 was 3000 nM.

On to `COc1cc(Br)cnc1C(=O)Nc1cc(C2(C(F)F)COCC(N)=N2)c(F)cc1F` (stereo not drawn) [Example 83, 5-Bromo-3-methoxy-pyridine-2-carboxylic acid [5-(5-amino-3-difluoromethyl-3,6-dihydro-2H-[1,4]oxazin-3-yl)-2,4-difluoro-phenyl]-amide hydrochloride], for which the IC50 was found to be 2900 nM.

With `NC1=NC(c2cc(NC(=O)c3ncc(Br)cc3O)c(F)cc2F)(C(F)F)COC1` (stereo not drawn) [Example 84, 5-Bromo-3-hydroxy-pyridine-2-carboxylic acid [5-(5-amino-3-difluoromethyl-3,6-dihydro-2H-[1,4]oxazin-3-yl)-2,4-difluoro-phenyl]-amide hydrochloride], the IC50 worked out at 930 nM. In the case of `NC1=N[C@](CF)(c2cc(NC(=O)c3ccc(Cl)cn3)ccc2F)COC1` [Example 85, 5-Chloro-pyridine-2-carboxylic acid [3-((R)-5-amino-3-fluoromethyl-3,6-dihydro-2H-[1,4]oxazin-3-yl)-4-fluoro-phenyl]-amide hydrochloride], the IC50 came to 26 nM.

Turning to `NC1=NC(CF)(c2cc(NC(=O)c3ccc(Br)cn3)ccc2F)COC1` (stereo not drawn) [Example 86, 5-Bromo-pyridine-2-carboxylic acid [3-(5-amino-3-fluoromethyl-3,6-dihydro-2H-[1,4]oxazin-3-yl)-4-fluoro-phenyl]-amide hydrochloride], the IC50 is 44 nM. Turning to `NC1=NC(CF)(c2cc(NC(=O)c3ccc(Cl)cn3)ccc2F)COC1` (stereo not drawn) [Example 87, 5-Chloro-pyridine-2-carboxylic acid [3-(5-amino-3-fluoromethyl-3,6-dihydro-2H-[1,4]oxazin-3-yl)-4-fluoro-phenyl]-amide hydrochloride], the IC50 stood at 57 nM. Turning to `NC1=NC(CF)(c2cc(NC(=O)c3ncc(Cl)cc3Cl)ccc2F)COC1` (stereo not drawn) [Example 88, 3,5-Dichloro-pyridine-2-carboxylic acid [3-(5-amino-3-fluoromethyl-3,6-dihydro-2H-[1,4]oxazin-3-yl)-4-fluoro-phenyl]-amide hydrochloride], the IC50 stood at 33 nM.

For `N#Cc1ccc(C(=O)Nc2ccc(F)c(C3(CF)COCC(N)=N3)c2)nc1` (stereo not drawn) [Example 89, 5-Cyano-pyridine-2-carboxylic acid [3-(5-amino-3-fluoromethyl-3,6-dihydro-2H-[1,4]oxazin-3-yl)-4-fluoro-phenyl]-amide hydrochloride], the half-maximal inhibitory concentration (IC50) came out at 94 nM. As for `Cc1cc(Br)cnc1C(=O)Nc1ccc(F)c(C2(CF)COCC(N)=N2)c1` (stereo not drawn) [Example 90, 5-Bromo-3-methyl-pyridine-2-carboxylic acid [3-(5-amino-3-fluoromethyl-3,6-dihydro-2H-[1,4]oxazin-3-yl)-4-fluoro-phenyl]-amide hydrochloride], the figure is 39 nM. Turning to `Cc1cc(Br)cnc1C(=O)Nc1ccc(F)c([C@]2(CF)COCC(N)=N2)c1` [Example 91, 5-Bromo-3-methyl-pyridine-2-carboxylic acid [3-((R)-5-amino-3-fluoromethyl-3,6-dihydro-2H-[1,4]oxazin-3-yl)-4-fluoro-phenyl]-amide hydrochloride], the IC50 turned out to be 15 nM. With `Cc1cc(Cl)cnc1C(=O)Nc1ccc(F)c([C@]2(CF)COCC(N)=N2)c1` [Example 92, 5-Chloro-3-methyl-pyridine-2-carboxylic acid [3-((R)-5-amino-3-fluoromethyl-3,6-dihydro-2H-[1,4]oxazin-3-yl)-4-fluoro-phenyl]-amide], the IC50 amounted to 5 nM.

For the compound `Cl.[2H]c1nc(C(=O)Nc2ccc(F)c([C@]3(CF)COCC(N)=N3)c2)c(C([2H])([2H])[2H])c([2H])c1Cl` [Example 93, 5-Chloro-4,6-dideutero-3-trideuteromethyl-pyridine-2-carboxylic acid [3-((R)-5-amino-3-fluoromethyl-3,6-dihydro-2H-[1,4]oxazin-3-yl)-4-fluoro-phenyl]-amide hydrochloride], the IC50 was 8 nM. As for `NC1=N[C@](CF)(c2cc(NC(=O)c3ncc(Br)cc3O)ccc2F)COC1` [Example 94, 5-Bromo-3-hydroxy-pyridine-2-carboxylic acid [3-((R)-5-amino-3-fluoromethyl-3,6-dihydro-2H-[1,4]oxazin-3-yl)-4-fluoro-phenyl]-amide hydrochloride], the figure is 22 nM; as for `COc1cc(Br)cnc1C(=O)Nc1ccc(F)c([C@]2(CF)COCC(N)=N2)c1` [Example 95, 5-Bromo-3-methoxy-pyridine-2-carboxylic acid [3-((R)-5-amino-3-fluoromethyl-3,6-dihydro-2H-[1,4]oxazin-3-yl)-4-fluoro-phenyl]-amide], 390 nM; as for `NC1=N[C@@](c2cc(NC(=O)c3ccc(Br)cn3)ccc2F)(C(F)F)CCOC1` [Example 97, 5-Bromo-pyridine-2-carboxylic acid[3-((S)-3-amino-5-difluoromethyl-2,5,6,7-tetrahydro-[1,4]oxazepin-5-yl)-4-fluoro-phenyl]-amide hydrochloride], 18 nM. As for `N#Cc1ccc(C(=O)Nc2ccc(F)c(C3(C(F)(F)F)CCOCC(N)=N3)c2)nc1` (stereo not drawn) [Example 98, 5-Cyano-pyridine-2-carboxylic acid [3-(3-amino-5-trifluoromethyl-2,5,6,7-tetrahydro-[1,4]oxazepin-5-yl)-4-fluoro-phenyl]-amide hydrochloride], the figure is 240 nM; as for `CC1(c2cc(NC(=O)c3ccc(Br)cn3)ccc2F)N=C(N)COCC1(F)F` (stereo not drawn) [Example 101, 5-Bromo-pyridine-2-carboxylic acid [3-(3-amino-6,6-difluoro-5-methyl-2,5,6,7-tetrahydro-[1,4]oxazepin-5-yl)-4-fluoro-phenyl]-amide], 30 nM; as for `NC1=NC(c2cccc(NC(=O)c3cc(Br)co3)c2)(C(F)F)COC1` (stereo not drawn) [Example 102, 4-Bromo-furan-2-carboxylic acid [3-(5-amino-3-difluoromethyl-3,6-dihydro-2H-[1,4]oxazin-3-yl)-phenyl]-amide hydrochloride], 890 nM. As for `NC1=NC(c2cccc(NC(=O)c3ccc(O)nn3)c2)(C(F)F)COC1` (stereo not drawn) [Example 103, 6-Hydroxy-pyridazine-3-carboxylic acid [3-(5-amino-3-difluoromethyl-3,6-dihydro-2H-[1,4]oxazin-3-yl)-phenyl]-amide hydrochloride], the figure is 7800 nM; as for `CCc1nc(C(=O)Nc2cccc(C3(C(F)F)COCC(N)=N3)c2)co1` (stereo not drawn) [Example 105, 2-Ethyl-oxazole-4-carboxylic acid [3-(5-amino-3-difluoromethyl-3,6-dihydro-2H-[1,4]oxazin-3-yl)-phenyl]-amide hydrochloride], 5200 nM; as for `Cc1nc(C(=O)Nc2cccc(C3(C(F)F)COCC(N)=N3)c2)c(C)o1` (stereo not drawn) [Example 106, 2,5-Dimethyl-oxazole-4-carboxylic acid [3-(5-amino-3-difluoromethyl-3,6-dihydro-2H-[1,4]oxazin-3-yl)-phenyl]-amide hydrochloride], 4000 nM.

On to `COc1cc(Br)cnc1C(=O)Nc1cccc(C2(C(F)F)COCC(N)=N2)c1` (stereo not drawn) [Example 107, 5-Bromo-3-methoxy-pyridine-2-carboxylic acid [3-(5-amino-3-difluoromethyl-3,6-dihydro-2H-[1,4]oxazin-3-yl)-phenyl]-amide hydrochloride], for which the IC50 came out at 820 nM. As to `NC1=NC(c2cccc(NC(=O)c3ncc(Br)cc3O)c2)(C(F)F)COC1` (stereo not drawn) [Example 108, 5-Bromo-3-hydroxy-pyridine-2-carboxylic acid [3-(5-amino-3-difluoromethyl-3,6-dihydro-2H-[1,4]oxazin-3-yl)-phenyl]-amide hydrochloride], the concentration for half-maximal inhibition (IC50) is 28 nM.

For the compound `COCCOc1cnc(C(=O)Nc2cccc(C3(C(F)F)COCC(N)=N3)c2)cn1` (stereo not drawn) [Example 109, hydrochloride], the IC50 stood at 1200 nM. The value for `NC1=NC(c2cccc(NC(=O)c3cnc(C(F)F)cn3)c2)(C(F)F)COC1` (stereo not drawn) [Example 110, 5-Difluoromethyl-pyrazine-2-carboxylic acid [3-(5-amino-3-difluoromethyl-3,6-dihydro-2H-[1,4]oxazin-3-yl)-phenyl]-amide hydrochloride] was 1900 nM; that for `NC1=N[C@@](c2cc(NC(=O)c3ncc(Cl)cc3Cl)ccc2F)(C(F)F)COC1` [Example 111, 3,5-Dichloro-pyridine-2-carboxylic acid [3-((R)-5-amino-3-difluoromethyl-3,6-dihydro-2H-[1,4]oxazin-3-yl)-4-fluoro-phenyl]-amide hydrochloride] was 25 nM; that for `NC1=N[C@@](c2cc(NC(=O)c3ncc(F)cc3F)ccc2F)(C(F)F)COC1` [Example 113, 3,5-Difluoro-pyridine-2-carboxylic acid [3-((R)-5-amino-3-difluoromethyl-3,6-dihydro-2H-[1,4]oxazin-3-yl)-4-fluoro-phenyl]-amide hydrochloride] was 120 nM.
